Experiment: Spectrophotometric pharmacodynamics (PD) assay: inhibition of hydroxyapatite generation in human plasma
Assay type: biochemical
Conditions: human plasma (EDTA-K2), phosphate 1.5 mM and calcium 12.5 mM final, 25° C., slope of absorbance at 550 nm between 6 min and 24 min; read-out: IC50 (Mean ± SD)
Protocol: The inhibition effect of the test compounds on the generation of the human plasma hydroxyapatite (HAP) was determined by the spectrophotometric pharmacodynamics (PD) assay.
1.1 Preparation of Reagents • 1) Human plasma anticoagulated with EDTA-K2. • 2) Mixed solution: disodium hydrogen phosphate 5 mM, calcium chloride 41.67 mM, adjusted to pH 7.4 and filtered through a 0.22 μm filter. • 3) Sodium chloride solution: 0.15 M, adjusted to pH 7.4 and filtered through a 0.22 μm filter.
2.1 Test Procedures • 1) The test compounds were prepared using a 0.15 M sodium chloride solution. • 2) The human plasma sample was reprocessed. A sufficient amount of plasma was taken and centrifuged at room temperature at 10000 g for 30 min for later use. • 3) The plasma was added to a 96 well plate at 75 μL/well. • 4) The candidate drug was added at 5 μL/well. • 5) The mixed solution of disodium hydrogen phosphate and calcium chloride was added at […], with expected final concentrations of 1.5 mM and 12.5 mM, respectively. • 6) The plate was incubated at room temperature (25° C.) on a shaker (750 rpm), and the absorbance at a wavelength of 550 nm was measured every 3 min. • 7) The final reading was set as the slope of the change in absorbance between 6 min and 24 min.

`COCCOCCO[C@@H]1C(OP(=O)(O)O)[C@H](OCCOCCOC)[C@@H](OP(=O)(O)O)C(OP(=O)(O)O)[C@H]1OP(=O)(O)O` (stereo partly shown) [INS 3001] gave an IC50 of 1860 ± 142 nM.

From patent US12649753B2, “Inositol derivative and use thereof” (SHANGHAI SENHUI MEDICINE CO., LTD., priority 2020, dated 2026)
